Consider one molecule from ChEMBL document CHEMBL5727040, “Factor XIa inhibitors” (2018).

For one assay, the target named is Coagulation factor XI (Homo sapiens, UniProt P03951). Briefly: Inhibition Assay: Factor XIa determinations were made in 50 mM HEPES buffer at pH 7.4 containing 150 mM NaCl, 5 mM CaCl2, and 0.1% PEG 8000 (polyethylene glycol; JT Baker or Fisher Scientific). Determinations were made using purified human Factor XIa at a final concentration of 40 pM (Sekisui Diagnostics) and the synthetic substrate, Z-Gly-Pro-Arg-AFC, TFA salt (Sigma #C0980) at a concentration of 100 μM.

Another assay deals with Plasma kallikrein (Homo sapiens, UniProt P03952). Briefly: Kallikrein Assay: The effectiveness of a compound of the present invention as an inhibitor of Kallikrein can be determined using a relevant purified serine protease, and an appropriate synthetic substrate. The rate of hydrolysis of the chromogenic or fluorogenic substrate by the relevant serine protease was measured both in the absence and presence of compounds of the present invention. Assays were conducted at room temperature or at 37° C. […] A decrease in the rate of fluorescence change in the presence of inhibitor is indicative of enzyme inhibition. Such methods are known to one skilled in the art. […] Times required to achieve equilibration between enzyme and inhibitor were determined in control experiments. The reactions were performed under linear progress curve conditions and fluorescence increase measured at 405 Ex/510 Em nm. […] IC50 was determined by inflection point from a four parameter logistic curve fit. Ki was calculated using the Cheng Prusoff equation, Ki=IC50/(1+([S]/Km)).
Chain of Plasma kallikrein (P03952 20-390 limits assumed): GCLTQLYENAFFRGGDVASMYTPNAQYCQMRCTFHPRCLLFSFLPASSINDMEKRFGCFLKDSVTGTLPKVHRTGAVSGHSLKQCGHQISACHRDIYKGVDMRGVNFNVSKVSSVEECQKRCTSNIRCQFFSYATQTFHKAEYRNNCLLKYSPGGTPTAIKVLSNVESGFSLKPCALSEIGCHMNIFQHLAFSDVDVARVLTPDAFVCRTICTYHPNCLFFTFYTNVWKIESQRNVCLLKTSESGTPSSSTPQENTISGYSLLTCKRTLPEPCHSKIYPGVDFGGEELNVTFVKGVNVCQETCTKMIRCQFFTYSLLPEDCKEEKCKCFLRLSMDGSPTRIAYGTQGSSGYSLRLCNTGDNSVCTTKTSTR
Chain of Plasma kallikrein (P03952 391-638 limits assumed): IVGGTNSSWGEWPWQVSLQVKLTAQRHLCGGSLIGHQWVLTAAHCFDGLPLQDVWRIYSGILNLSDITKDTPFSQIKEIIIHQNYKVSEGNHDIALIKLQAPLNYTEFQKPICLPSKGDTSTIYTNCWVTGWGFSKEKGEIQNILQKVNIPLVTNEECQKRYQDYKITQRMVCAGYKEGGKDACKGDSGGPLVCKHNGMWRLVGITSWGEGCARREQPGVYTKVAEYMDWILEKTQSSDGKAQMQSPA

Chain of Coagulation factor XI (P03951 19-387 limits assumed): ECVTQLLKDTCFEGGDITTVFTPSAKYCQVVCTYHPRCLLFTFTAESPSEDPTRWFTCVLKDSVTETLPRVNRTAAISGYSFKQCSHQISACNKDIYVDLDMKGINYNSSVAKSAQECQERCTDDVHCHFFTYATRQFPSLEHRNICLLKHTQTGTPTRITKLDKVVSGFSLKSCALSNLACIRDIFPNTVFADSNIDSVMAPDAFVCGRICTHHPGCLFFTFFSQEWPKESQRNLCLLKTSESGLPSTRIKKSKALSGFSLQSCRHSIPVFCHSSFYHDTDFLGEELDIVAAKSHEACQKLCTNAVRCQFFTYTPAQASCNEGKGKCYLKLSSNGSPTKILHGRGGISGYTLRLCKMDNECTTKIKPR
Chain of Coagulation factor XI (P03951 388-625 limits assumed): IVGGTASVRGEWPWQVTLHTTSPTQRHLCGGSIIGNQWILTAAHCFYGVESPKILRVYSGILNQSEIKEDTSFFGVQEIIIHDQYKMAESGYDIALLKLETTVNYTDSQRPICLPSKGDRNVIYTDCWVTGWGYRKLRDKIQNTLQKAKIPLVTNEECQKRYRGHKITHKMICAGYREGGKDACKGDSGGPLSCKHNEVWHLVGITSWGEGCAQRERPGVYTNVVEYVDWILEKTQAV

The IC50 is the concentration at which inhibition is half-maximal. `O=C(NC1CC=CC1)N1CCC(c2cccc([C@H](Cc3ccccc3)c3ccc(-c4cc(Cl)ccc4-n4cnnn4)c[n+]3[O-])c2)CC1`: the results for the IC50 at Coagulation factor XI and on Plasma kallikrein were 18.5 nM and 696 nM, respectively.
